# According to ChEMBL document CHEMBL1146336, “The dicationic derivatives of DBTAA: Interactions with DNA/RNA and antiproliferative effects on human cell lines” (Bioorg Med Chem, 2007):
# Assays:
# [1] = Antiproliferative activity against human WI38 cells after 72 hrs by MTT assay; format: cell-based; details: WI-38, 72 h
# [2] = tested on: HEp-2; experiment: Antiproliferative activity against human Hep2 cells after 72 hrs by MTT assay; format: functional, cell-based; details: HEp-2, 72 h
# [3] = tested on: MCF7; experiment: Antiproliferative activity against human MCF7 cells after 72 hrs by MTT assay; format: functional, cell-based; details: MCF7, 72 h
# [4] = tested on: HeLa; experiment: Antiproliferative activity against human HeLa cells after 72 hrs by MTT assay; format: functional, cell-based
# [5] = tested on: MIA PaCa-2; experiment: Antiproliferative activity against human MiaPaCa2 cells after 72 hrs by MTT assay a; format: functional, cell-based; details: MIA PaCa-2, 72 h
# [6] = tested on: SW-620; experiment: Antiproliferative activity against human SW620 cells after 72 hrs by MTT assay; format: functional, cell-based; details: SW-620, 72 h
# [7] = tested on: MIA PaCa-2; experiment: Effect on cell cycle in human MiaPaCa2 cells assessed as accumulation at G1/G0 phase at 5 uM after 48 hrs by […]; format: functional
# [8] = tested on: MIA PaCa-2; experiment: Effect on cell cycle in human MiaPaCa2 cells assessed as accumulation at S phase at 5 uM after 24 hrs by […]; format: functional
# [9] = tested on: MIA PaCa-2; experiment: Effect on cell cycle in human MiaPaCa2 cells assessed as accumulation at G1/G0 phase at 5 uM after 24 hrs by […]; format: functional
# [10] = tested on: MIA PaCa-2; experiment: Effect on cell cycle in human MiaPaCa2 cells assessed as accumulation at sub-G1 phase at 5 uM after 24 hrs by […]; format: functional
# [11] = tested on: MIA PaCa-2; experiment: Effect on cell cycle in human MiaPaCa2 cells assessed as accumulation at S phase at 5 uM after 48 hrs by […]; format: functional
# [12] = tested on: MIA PaCa-2; experiment: Effect on cell cycle in human MiaPaCa2 cells assessed as accumulation at S phase at 5 uM after 72 hrs by […]; format: functional
# [13] = Binding affinity to poly A-poly U 0.05 mol/dm^3 by UV/vis titration
# [14] = Binding affinity to poly G-poly C 0.05 mol/dm^3 by UV/vis titration
# [15] = tested on: MIA PaCa-2; experiment: Effect on cell cycle in human MiaPaCa2 cells assessed as accumulation at sub-G1 phase at 5 uM after 48 hrs by Annexin-V assay; format: functional
# [16] = tested on: MIA PaCa-2; experiment: Effect on cell cycle in human MiaPaCa2 cells assessed as accumulation at G2/M phase at 5 uM after 24 hrs by […]; format: functional
# [17] = tested on: MIA PaCa-2; experiment: Effect on cell cycle in human MiaPaCa2 cells assessed as accumulation at G2/M phase at 5 uM after 72 hrs by […]; format: functional
# [18] = tested on: MIA PaCa-2; experiment: Effect on cell cycle in human MiaPaCa2 cells assessed as accumulation at G1/G0 phase at 5 uM after 72 hrs by […]; format: functional
# [19] = tested on: MIA PaCa-2; experiment: Effect on cell cycle in human MiaPaCa2 cells assessed as accumulation at G2/M phase at 5 uM after 48 hrs by […]; format: functional
# [20] = Binding affinity to poly dA-poly dT 0.05 mol/dm^3 by UV/vis titration
# [21] = tested on: MIA PaCa-2; experiment: Effect on cell cycle in human MiaPaCa2 cells assessed as accumulation at sub-G1 phase at 5 uM after 72 hrs by Annexin-V assay; format: functional
# [22] = Binding affinity to poly A-poly U 0.15 mol/dm^3 by UV/vis titration
# [23] = Binding affinity to poly dA-poly dT 0.15 mol/dm^3 by UV/vis titration
smiles,measurement,setting,value
C1=C(CCC[n+]2ccc(-c3ccncc3)cc2)\C=N\c2ccccc2N/C=C(CCC[n+]2ccc(-c3ccncc3)cc2)\C=N\c2ccccc2N/1,IC50,[1],> 100 µM
same,IC50,[2],> 100 µM
same,IC50,[3],≥ 100 µM
same,IC50,[4],> 100 µM
same,IC50,[5],> 100 µM
same,IC50,[6],> 50 µM
C[n+]1ccc(CCC(=O)OCCCC2=C/Nc3ccccc3/N=C/C(CCCOC(=O)CCc3cc[n+](C)cc3)=C\Nc3ccccc3\N=C\2)cc1.[Br-].[Br-],Activity,[7],79.3%
same,Activity,[8],16.29%
same,IC50,[1],4 µM
same,Activity,[9],62.32%
same,Activity,[10],5.3%
same,IC50,[2],38 µM
same,Activity,[11],9.7%
same,Activity,[12],5.39%
same,IC50,[3],2.6 µM
same,log Ks,[13],5.9
same,IC50,[4],13.5 µM
same,IC50,[5],2.6 µM
same,log Ks,[14],6.1
same,Activity,[15],10%
same,Activity,[16],21.76%
same,Activity,[17],10.5%
same,Activity,[18],84.02%
same,Activity,[19],10.98%
same,IC50,[6],4 µM
same,log Ks,[20],5.3
same,Activity,[21],20%
C1=C(CCC[n+]2ccccc2)\C=N\c2ccccc2N/C=C(CCC[n+]2ccccc2)\C=N\c2ccccc2N/1.[Br-].[Br-],log Ks,[22],5.4
same,Activity,[7],65.59%
same,Activity,[8],28.4%
same,IC50,[1],10 µM
same,Activity,[9],47.56%
same,Activity,[10],9.2%
same,IC50,[2],11 µM
same,Activity,[11],17.538%
same,Activity,[12],31.03%
same,IC50,[3],6 µM
same,log Ks,[13],5.19
same,IC50,[4],2 µM
same,IC50,[5],1.2 µM
same,log Ks,[14],4.2
same,log Ks,[23],4.77
same,Activity,[15],11%
same,Activity,[16],24.054%
same,Activity,[17],10.7%
same,Activity,[18],58.34%
same,Activity,[19],16.38%
same,IC50,[6],18.5 µM
same,log Ks,[20],6.1
same,Activity,[21],40%
